We go through one molecule from US20110130425A1, “Use of H3 Histaminergic Agonists for the Treatment of Addiction to Drugs of Abuse” (priority 2009, published 2011).

In one test the test system is alcohol relapse behavior. Put plainly: Alcohol Deprivation Effect (ADE) paradigm. In kind it is in vivo, rat. Particulars: L-histidine; rats. As for the experimental part: The effects of a H3 histaminergic ligand, such as L-histidine, are tested in our well-established model of relapse-like drinking behavior.
Alcohol Deprivation Effect (ADE) paradigm: All rats are given continuous access to tap water and to 5%, 10% and 20% (v/v) ethanol solutions in their home cages. Spillage and evaporation is minimized by the use of self-made bottles. All drinking solutions are renewed weekly and the positions of the four bottles are changed to avoid location preferences. After eight weeks of continuous access, ethanol solutions are repeatedly withdrawn for 3-21 days (deprivation phases) every four weeks until the rats become alcohol-dependent (as measured by a sucrose and quinine tests). The effects of a H3 histaminergic ligand are then tested on the expression of the alcohol deprivation effect (=relapse behavior). A second ADE study is initiated 3 months later in order to study the persistence of treatment efficacy.
Past pharmacological studies in home cage drinking models were hampered by the fact that measurements were performed at 24 hour intervals. Thus the exact temporal profile of drug treatment could not be assessed under home cage drinking conditions and sometimes pharmacological effects became masked by the use of measurements every 24 hours. This problem has now been solved in our lab by the use of a fully-automated drinkometer system. […]

Test [1] concerns nicotine seeking behavior. The test is described as follows: Extinction and reinstatement of nicotine seeking, mouse intravenous operant self-administration. In kind it is in vivo, C57B16/J mice. Particulars: L-histidine 1 g/kg or 2 g/kg; mice. Here is the method: L-Histidine solution: L-Histidine (Sigma, H-8000) at a 155.15 g/mol concentration in 0.34 M phosphoric acid is prepared as follows. 1.5 g L-histidine are dissolved in 12 ml of 0.34 M phosphoric acid to obtain a 0.8 M solution of L-histidine at approximately pH 6. pH is verified and 0.1 g of NaCl added to a final concentration of 0.9%. Finally, the L-histidine solution is sterilized by filtration.
Animals: Male C57B16/J mice (Charles River, France) are housed individually in controlled laboratory conditions with the temperature maintained at 21±1° C., humidity at 55±10%, and light reversal cycle (light on at 20.00 h, light off at 08.00 h). Mice are tested during the dark phase of a light reversal cycle. Behavioural tests and animal care are conducted in accordance with the standard ethical guidelines (National Institutes of Health 1995; European Communities Directive 86/609 EEC) and the protocols are approved by the local ethical committee (CEEA-PRBB).
Apparatus: The self-administration experiments are conducted in mouse operant chambers (Model ENV-307A-CT, Medical Associates, Georgia, VT, USA). The experimental chambers are equipped with a house light, ventilator fan, drug infusion pump, liquid swivel with counterbalanced arm, and two manipulanda with cue lights that are located on either side of a food dipper. The manipulanda are holes (1.2 cm diameter). […]
The catheter is flushed daily with a saline solution containing heparin (30 UI/mL) in order to maintain its patency. The patency of intravenous catheters is evaluated periodically (approximately every 6 days) and whenever drug self-administration behavior appears to deviate dramatically from that observed previously. Patency is evaluated by the infusion of 0.1 ml of thiobarbital (5 mg/ml) through the catheter. […]
L-Histidine dosage: The first L-histidine dose is 1 g/kg. […] Dosage for other H3 histaminergic agonists or H3 histaminergic agonist precursors is determined considering the pharmacokinetic and toxicological characteristics of the compound. […]

The structures appear in SMILES notation.

Turning to `N[C@@H](Cc1c[nH]cn1)C(=O)O` [L-histidine], in the test on alcohol relapse behavior, the “relapse into alcohol drinking after alcohol deprivation (alcohol deprivation effect)” value is given as “decreases relapse”. Moreover, in test [1], the “cue-induced reinstatement of nicotine seeking” value is given as “decreases cue-induced reinstatement”, the “number of sessions required to achieve the extinction criteria (nicotine)” value was “shortens the number of sessions” and the “responding during the first extinction session (nicotine)” value is recorded as “decreases or delays responding”.
